Test results reported in patent US11058742B2, “Food composition for suppressing hepatic lipogenesis” (FUJI OIL HOLDINGS INC., priority 2019, dated 2021).

Key:
[1] = system: Fasn gene mRNA; experiment: Secondary screening: expression level of Fasn gene mRNA in isolated hepatocyte derived from wild-type mouse; assay type: cell-based, mouse (C57BL/6J); details: each peptide 100 μg/ml final concentration, 24 hours, with insulin, LXR agonist, amino acid mixture; vs control (10% DMSO)
Experimental: (§1) In the secondary screening, evaluation is performed by measuring the expression level of Fasn gene mRNA using isolated hepatocyte derived from wild-type mouse (C57BL/6J mouse). More specifically, isolated hepatocyte derived from wild-type mouse (C57BL/6J mouse) is plated in 12-well plate in Dulbecco's modified Eagle's medium (DMEM) containing 1% penicillin and streptomycin, and 10% fetal calf serum (FCS) for 8 hours, and then subjected to 16 hours starvation by replacing the medium with Dulbecco's modified Eagle's medium (DMEM) containing 1% penicillin and streptomycin. The medium is recovered and cultured for 24 hours in a medium containing insulin, liver X receptor (LXR) agonist, amino acid mixture, and each peptide (100 μg/ml in the medium at final concentration). In addition, as a group without adding peptide, a sample to which 10% dimethyl sulfoxide (DMSO) is added instead of the peptide is similarly cultured for 24 hours. After removing the medium from each well, mRNA is extracted. The extraction of mRNA is performed with the SV Total RNA Isolation System (Promega, Z3105), reverse transcription from the RNA is performed with the PrimeScript RT reagent kit (Takara, RR0037A), and quantitative PCR is performed with the CFX384 Real-Time System and C1000 Thermal Cycler using the SYBR Select Master Mix kit (Life technologies, 4472908). The methods comply with the instructions for the kit and equipment.

[2] = system: Fasn gene mRNA; experiment: Tertiary screening: Fasn gene expression level with changed amount of peptide; assay type: cell-based, mouse (C57BL/6J); details: for effect of suppressing hepatic lipogenesis: conclusion from the results of primary to tertiary screening; for Fasn gene expression level (significantly reduced compared to the blank): final concentration of the sample 10, 30, 100 μg/ml, otherwise as secondary screening
Experimental: as §1
The amount of peptide to be added is changed (as used herein, the final concentration of the sample is 10, 30, 100 μg/ml, unless otherwise specified), and the expression level of the Fasn gene is evaluated in the same manner as in the secondary screening.

| Substance | Fasn gene expression level (significantly reduced compared to the blank) [1] | effect of suppressing hepatic lipogenesis [2] | Fasn gene expression level (significantly reduced compared to the blank) [2] |
| --- | --- | --- | --- |
| Ala-Gly | significantly suppressed the expression of the Fasn gene | an effect of suppressing hepatic lipogenesis was confirmed | significantly suppressed the expression of the Fasn gene |
| Ala-His | significantly suppressed the expression of the Fasn gene |  |  |
| Ala-Tyr | significantly suppressed the expression of the Fasn gene |  |  |
| Arg-Ala-Val |  | an effect of suppressing hepatic lipogenesis was confirmed | significantly suppressed the expression of the Fasn gene |
| Arg-Trp-Phe |  | an effect of suppressing hepatic lipogenesis was confirmed | significantly suppressed the expression of the Fasn gene |
| Asn-Arg-Val |  | an effect of suppressing hepatic lipogenesis was confirmed | significantly suppressed the expression of the Fasn gene |
| Asn-Gly-Arg |  | an effect of suppressing hepatic lipogenesis was confirmed | significantly suppressed the expression of the Fasn gene |
| Asp-Phe-Phe |  | an effect of suppressing hepatic lipogenesis was confirmed | significantly suppressed the expression of the Fasn gene |
| Asp-Val-Phe |  | an effect of suppressing hepatic lipogenesis was confirmed | significantly suppressed the expression of the Fasn gene |
| Gln-Glu-Glu |  | an effect of suppressing hepatic lipogenesis was confirmed | significantly suppressed the expression of the Fasn gene |
| Gly-Ser-Leu |  | an effect of suppressing hepatic lipogenesis was confirmed | significantly suppressed the expression of the Fasn gene |
| His-Ala-Gln |  | an effect of suppressing hepatic lipogenesis was confirmed | significantly suppressed the expression of the Fasn gene |
| His-Asn | significantly suppressed the expression of the Fasn gene | an effect of suppressing hepatic lipogenesis was confirmed | significantly suppressed the expression of the Fasn gene |
| His-Ser | significantly suppressed the expression of the Fasn gene | an effect of suppressing hepatic lipogenesis was confirmed | significantly suppressed the expression of the Fasn gene |
| His-Thr | significantly suppressed the expression of the Fasn gene | an effect of suppressing hepatic lipogenesis was confirmed | significantly suppressed the expression of the Fasn gene |
| His-Trp | significantly suppressed the expression of the Fasn gene | an effect of suppressing hepatic lipogenesis was confirmed | significantly suppressed the expression of the Fasn gene |
| Ile-Asp-Arg |  | an effect of suppressing hepatic lipogenesis was confirmed | significantly suppressed the expression of the Fasn gene |
| Ile-His-Arg |  | an effect of suppressing hepatic lipogenesis was confirmed | significantly suppressed the expression of the Fasn gene |

| Substance | Fasn gene expression level (significantly reduced compared to the blank) [1] | effect of suppressing hepatic lipogenesis [2] | Fasn gene expression level (significantly reduced compared to the blank) [2] |
| --- | --- | --- | --- |
| Ile-Ile-Pro |  | an effect of suppressing hepatic lipogenesis was confirmed | significantly suppressed the expression of the Fasn gene |
| Ile-Val-Ile |  | an effect of suppressing hepatic lipogenesis was confirmed | significantly suppressed the expression of the Fasn gene |
| Leu-Arg-Asp |  | an effect of suppressing hepatic lipogenesis was confirmed | significantly suppressed the expression of the Fasn gene |
| Leu-Val-Ile |  | an effect of suppressing hepatic lipogenesis was confirmed | significantly suppressed the expression of the Fasn gene |
| Lys-Leu-Gly |  | an effect of suppressing hepatic lipogenesis was confirmed | significantly suppressed the expression of the Fasn gene |
| Lys-Pro-Ile |  | an effect of suppressing hepatic lipogenesis was confirmed | significantly suppressed the expression of the Fasn gene |
| Phe-Ile-Arg |  | an effect of suppressing hepatic lipogenesis was confirmed | significantly suppressed the expression of the Fasn gene |
| Pro-Phe-Tyr |  | an effect of suppressing hepatic lipogenesis was confirmed | significantly suppressed the expression of the Fasn gene |
| Ser-Gly-Glu |  | an effect of suppressing hepatic lipogenesis was confirmed | significantly suppressed the expression of the Fasn gene |
| Ser-Ser-Val |  | an effect of suppressing hepatic lipogenesis was confirmed | significantly suppressed the expression of the Fasn gene |
| Trp-Glu | significantly suppressed the expression of the Fasn gene | an effect of suppressing hepatic lipogenesis was confirmed | significantly suppressed the expression of the Fasn gene |
| Trp-Lys | significantly suppressed the expression of the Fasn gene | an effect of suppressing hepatic lipogenesis was confirmed | significantly suppressed the expression of the Fasn gene |
| Tyr-Lys | significantly suppressed the expression of the Fasn gene | an effect of suppressing hepatic lipogenesis was confirmed | significantly suppressed the expression of the Fasn gene |
| Tyr-Ser | significantly suppressed the expression of the Fasn gene | an effect of suppressing hepatic lipogenesis was confirmed | significantly suppressed the expression of the Fasn gene |
| Val-Ile-Leu |  | an effect of suppressing hepatic lipogenesis was confirmed | significantly suppressed the expression of the Fasn gene |
| Val-Leu-Gln |  | an effect of suppressing hepatic lipogenesis was confirmed | significantly suppressed the expression of the Fasn gene |
| Val-Phe-Val |  | an effect of suppressing hepatic lipogenesis was confirmed | significantly suppressed the expression of the Fasn gene |
